In PubChem BioAssay (NCI):
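Cultured in 96-well plates, cells were exposed to test compound for 48 hours across five concentrations. GI50 is the concentration that inhibits growth by half. The concentration for full growth arrest is given as TGI.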

Legend:
Assay in all cases: growth of human tumour cells (NCI), 48 h
OVCAR-4 ovarian = test system: OVCAR-4 ovarian
LOX IMVI melanoma = test system: LOX IMVI melanoma
HS 578T breast = test system: HS 578T breast
CCRF-CEM leukemia = test system: CCRF-CEM leukemia
K-562 leukemia = test system: K-562 leukemia
RPMI-8226 leukemia = test system: RPMI-8226 leukemia
MOLT-4 leukemia = test system: MOLT-4 leukemia
SK-OV-3 ovarian = test system: SK-OV-3 ovarian
RXF 393 renal = test system: RXF 393 renal
CAKI-1 renal = test system: CAKI-1 renal
UACC-62 melanoma = test system: UACC-62 melanoma
MDA-MB-435 = test system: MDA-MB-435
T-47D breast = test system: T-47D breast
SN12C renal = test system: SN12C renal
HCT-116 colon = test system: HCT-116 colon
NCI-H226 lung = test system: NCI-H226 lung
HL-60(TB) leukemia = test system: HL-60(TB) leukemia
MCF7 breast = test system: MCF7 breast
ACHN renal = test system: ACHN renal
EKVX NSCLC = test system: EKVX NSCLC
TK-10 renal = test system: TK-10 renal
MDA-MB-231 breast = test system: MDA-MB-231 breast
SK-MEL-28 melanoma = test system: SK-MEL-28 melanoma
SW-620 colon = test system: SW-620 colon
SF-295 CNS = test system: SF-295 CNS
NCI/ADR-RES ovarian = test system: NCI/ADR-RES ovarian
NCI-H23 lung = test system: NCI-H23 lung
HCT-15 colon = test system: HCT-15 colon
U251 CNS = test system: U251 CNS
UACC-257 melanoma = test system: UACC-257 melanoma
SK-MEL-5 melanoma = test system: SK-MEL-5 melanoma
IGROV1 ovarian = test system: IGROV1 ovarian
MALME-3M melanoma = test system: MALME-3M melanoma
M14 melanoma = test system: M14 melanoma
SNB-19 CNS = test system: SNB-19 CNS
HCC-2998 colon = test system: HCC-2998 colon
OVCAR-3 ovarian = test system: OVCAR-3 ovarian
SNB-75 CNS = test system: SNB-75 CNS
HOP-62 NSCLC = test system: HOP-62 NSCLC
PC-3 prostate = test system: PC-3 prostate
OVCAR-5 ovarian = test system: OVCAR-5 ovarian
SF-539 CNS = test system: SF-539 CNS
SF-268 CNS = test system: SF-268 CNS
HT29 colon = test system: HT29 colon
HOP-92 NSCLC = test system: HOP-92 NSCLC
UO-31 renal = test system: UO-31 renal
DU-145 prostate = test system: DU-145 prostate
SR leukemia = test system: SR leukemia
NCI-H522 lung = test system: NCI-H522 lung
OVCAR-8 ovarian = test system: OVCAR-8 ovarian
NCI-H460 lung = test system: NCI-H460 lung
KM12 colon = test system: KM12 colon
A549 NSCLC = test system: A549 NSCLC
COLO 205 colon = test system: COLO 205 colon
786-0 renal = test system: 786-0 renal
SK-MEL-2 melanoma = test system: SK-MEL-2 melanoma

## C#Cc1ccc(-n2c(/C=C/c3ccc(Cl)c(F)c3)nc3ncccc3c2=O)cc1
OVCAR-4 ovarian
  GI50: 0.27 µM
  TGI: 1.03 µM
LOX IMVI melanoma
  GI50: 0.183 µM
  TGI: 0.504 µM
HS 578T breast
  GI50: 0.419 µM
  TGI: > 100 µM
CCRF-CEM leukemia
  GI50: 0.29 µM
  TGI: > 100 µM
K-562 leukemia
  GI50: 0.337 µM
  TGI: > 100 µM
RPMI-8226 leukemia
  GI50: 0.351 µM
  TGI: 2.03 µM
MOLT-4 leukemia
  GI50: 0.546 µM
  TGI: > 100 µM

## C=C1CCC2C(/C=C(\C)CCC1O)OC(=O)C2C (stereo unspecified)
SK-OV-3 ovarian
  GI50: > 100 µM
  TGI: > 100 µM
RXF 393 renal
  GI50: 23.2 µM
  TGI: > 100 µM
OVCAR-4 ovarian
  GI50: > 100 µM
  TGI: > 100 µM
CAKI-1 renal
  GI50: > 100 µM
  TGI: > 100 µM
UACC-62 melanoma
  GI50: > 100 µM
  TGI: > 100 µM
MDA-MB-435
  GI50: > 100 µM
  TGI: > 100 µM
T-47D breast
  GI50: > 100 µM
  TGI: > 100 µM
SN12C renal
  GI50: > 100 µM
  TGI: > 100 µM
HCT-116 colon
  GI50: > 100 µM
  TGI: > 100 µM
NCI-H226 lung
  GI50: > 100 µM
  TGI: > 100 µM
HL-60(TB) leukemia
  GI50: 51.5 µM
  TGI: > 100 µM
MCF7 breast
  GI50: 82.2 µM
  TGI: > 100 µM
ACHN renal
  GI50: > 100 µM
  TGI: > 100 µM
EKVX NSCLC
  GI50: > 100 µM
  TGI: > 100 µM
TK-10 renal
  GI50: > 100 µM
  TGI: > 100 µM
MDA-MB-231 breast
  GI50: > 100 µM
  TGI: > 100 µM
LOX IMVI melanoma
  GI50: > 100 µM
  TGI: > 100 µM
SK-MEL-28 melanoma
  GI50: > 100 µM
  TGI: > 100 µM
HS 578T breast
  GI50: > 100 µM
  TGI: > 100 µM
SW-620 colon
  GI50: > 100 µM
  TGI: > 100 µM
SF-295 CNS
  GI50: > 100 µM
  TGI: > 100 µM
NCI/ADR-RES ovarian
  GI50: > 100 µM
  TGI: > 100 µM
CCRF-CEM leukemia
  GI50: 31.3 µM
  TGI: > 100 µM
NCI-H23 lung
  GI50: > 100 µM
  TGI: > 100 µM
HCT-15 colon
  GI50: > 100 µM
  TGI: > 100 µM
U251 CNS
  GI50: > 100 µM
  TGI: > 100 µM
UACC-257 melanoma
  GI50: > 100 µM
  TGI: > 100 µM
SK-MEL-5 melanoma
  GI50: > 100 µM
  TGI: > 100 µM
IGROV1 ovarian
  GI50: > 100 µM
  TGI: > 100 µM
MALME-3M melanoma
  GI50: > 100 µM
  TGI: > 100 µM
M14 melanoma
  GI50: > 100 µM
  TGI: > 100 µM
SNB-19 CNS
  GI50: > 100 µM
  TGI: > 100 µM
HCC-2998 colon
  GI50: > 100 µM
  TGI: > 100 µM
K-562 leukemia
  GI50: > 100 µM
  TGI: > 100 µM
OVCAR-3 ovarian
  GI50: > 100 µM
  TGI: > 100 µM
SNB-75 CNS
  GI50: > 100 µM
  TGI: > 100 µM
HOP-62 NSCLC
  GI50: > 100 µM
  TGI: > 100 µM
PC-3 prostate
  GI50: > 100 µM
  TGI: > 100 µM
OVCAR-5 ovarian
  GI50: > 100 µM
  TGI: > 100 µM
SF-539 CNS
  GI50: > 100 µM
  TGI: > 100 µM
RPMI-8226 leukemia
  GI50: 90.4 µM
  TGI: > 100 µM
SF-268 CNS
  GI50: > 100 µM
  TGI: > 100 µM
HT29 colon
  GI50: > 100 µM
  TGI: > 100 µM
HOP-92 NSCLC
  GI50: > 100 µM
  TGI: > 100 µM
UO-31 renal
  GI50: > 100 µM
  TGI: > 100 µM
DU-145 prostate
  GI50: > 100 µM
  TGI: > 100 µM
MOLT-4 leukemia
  GI50: 19.6 µM
  TGI: 58.2 µM
SR leukemia
  GI50: > 100 µM
  TGI: > 100 µM
NCI-H522 lung
  GI50: > 100 µM
  TGI: > 100 µM
OVCAR-8 ovarian
  GI50: > 100 µM
  TGI: > 100 µM
NCI-H460 lung
  GI50: > 100 µM
  TGI: > 100 µM
KM12 colon
  GI50: > 100 µM
  TGI: > 100 µM
A549 NSCLC
  GI50: > 100 µM
  TGI: > 100 µM
COLO 205 colon
  GI50: > 100 µM
  TGI: > 100 µM
786-0 renal
  GI50: > 100 µM
  TGI: > 100 µM
SK-MEL-2 melanoma
  GI50: > 100 µM
  TGI: > 100 µM
